Reference: ChEMBL document CHEMBL1137407, “Identification and optimization of anthranilic sulfonamides as novel, selective cholecystokinin-2 receptor antagonists” (J Med Chem, 2006)

How the values were obtained:
[1] = biological target: T1, Gastrin/cholecystokinin type B receptor (Homo sapiens, UniProt P32239)
T1 sequence (P32239 whole entry): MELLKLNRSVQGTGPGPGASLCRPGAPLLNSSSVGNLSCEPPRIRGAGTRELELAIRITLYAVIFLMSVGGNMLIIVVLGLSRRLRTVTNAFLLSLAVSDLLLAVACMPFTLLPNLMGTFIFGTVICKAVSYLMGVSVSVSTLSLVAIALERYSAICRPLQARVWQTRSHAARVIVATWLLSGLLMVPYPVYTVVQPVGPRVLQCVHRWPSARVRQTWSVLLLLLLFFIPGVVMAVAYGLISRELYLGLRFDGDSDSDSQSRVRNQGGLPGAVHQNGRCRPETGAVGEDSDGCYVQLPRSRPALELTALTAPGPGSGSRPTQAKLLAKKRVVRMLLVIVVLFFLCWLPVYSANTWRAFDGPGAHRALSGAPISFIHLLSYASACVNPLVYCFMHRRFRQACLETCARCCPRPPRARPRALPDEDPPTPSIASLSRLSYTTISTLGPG
Description: Displacement of [125I]CCK-8S from human CCK2R

[2] = biological target: T2, Cholecystokinin receptor type A (Homo sapiens, UniProt P32238)
T2 sequence (P32238 whole entry): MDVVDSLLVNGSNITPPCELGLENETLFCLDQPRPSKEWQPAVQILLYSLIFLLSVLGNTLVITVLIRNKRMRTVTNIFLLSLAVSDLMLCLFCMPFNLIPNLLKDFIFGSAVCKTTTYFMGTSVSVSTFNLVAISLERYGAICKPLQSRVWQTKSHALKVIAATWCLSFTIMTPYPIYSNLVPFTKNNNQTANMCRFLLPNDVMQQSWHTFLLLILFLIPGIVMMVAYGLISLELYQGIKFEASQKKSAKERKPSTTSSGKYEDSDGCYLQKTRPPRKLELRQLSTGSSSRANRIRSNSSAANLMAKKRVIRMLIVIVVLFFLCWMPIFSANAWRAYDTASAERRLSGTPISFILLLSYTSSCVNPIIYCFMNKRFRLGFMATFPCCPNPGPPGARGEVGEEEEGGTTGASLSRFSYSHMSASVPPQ
Description: Displacement of [125I]CCK-8S from human CCK1R

| SMILES | Ki ([1]; read-out: Log Ki (converted)) [µM] | Ki ([2]; read-out: Ki) [µM] | Ki ([1]; read-out: Ki) [µM] | Ki ([2]; read-out: Log Ki (converted)) [µM] |
| --- | --- | --- | --- | --- |
| O=C(Nc1ccc(C(=O)N2CCCCC2)c(NS(=O)(=O)c2cccc3nsnc23)c1)c1ccccc1 | 7.94 |  |  |  |
| O=C(N[C@@H](Cc1ccccc1)C(=O)O)c1ccc(Br)cc1NS(=O)(=O)c1cc2ccccc2[nH]1 | 2 |  |  |  |
| O=C(c1ccccc1NS(=O)(=O)c1cc2ccccc2[nH]1)N1CCCCC1 |  |  | > 10 | 7.94 |
| O=C(c1ccc(Br)cc1NS(=O)(=O)c1cccc2cnccc12)N1CCCCC1 |  | > 10 | > 10 |  |
| O=C(c1ccc(Cl)cc1NS(=O)(=O)c1cccc2cccnc12)N1CCCCC1 |  | > 10 | > 10 |  |
| O=C(c1ccc(F)cc1NS(=O)(=O)c1cccc2nsnc12)N1CCCCC1 | 1 |  |  |  |
| O=C(O)[C@@H]1CCCN1C(=O)c1ccc(Cl)cc1NS(=O)(=O)c1cccc2nsnc12 |  | > 10 | > 10 |  |
| O=C(c1ccccc1NS(=O)(=O)c1cccc2nsnc12)N1CCOCC1 |  | > 10 | > 10 |  |
| O=C(c1ccc(Br)cc1NS(=O)(=O)c1cccc2ccccc12)N1CCCCC1 |  | > 10 | > 10 |  |
| O=C(c1ccc(Br)cc1NS(=O)(=O)c1cccc2ncccc12)N1CCCCC1 | 0.794 | > 10 |  |  |
| O=C(c1ccc(Cl)cc1NS(=O)(=O)c1cccc2nsnc12)N1CCC(c2ccccc2)CC1 | 0.0631 | > 10 |  |  |
| CN1CCN(C(=O)c2ccc(Cl)cc2NS(=O)(=O)c2cccc3nsnc23)CC1 | 2.51 | > 10 |  |  |
| O=C(c1ccc(Cl)cc1NS(=O)(=O)c1cccc2nsnc12)N1CCSC1 |  | > 10 |  |  |
| O=C(c1ccc(Cl)cc1NS(=O)(=O)c1cccc2nsnc12)N1CCC1 | 1.58 | > 10 |  |  |
| O=C(c1ccc(F)cc1NS(=O)(=O)c1cccc2nccnc12)N1CCOCC1 | 3.98 | > 10 |  |  |
| O=C(c1ccc(CS)cc1NS(=O)(=O)c1cccc2nsnc12)N1CCCCC1 | 0.1 | > 10 |  |  |
| CCc1ccc(C(=O)N2CCCCC2)c(NS(=O)(=O)c2cccc3nsnc23)c1 | 0.251 | > 10 |  |  |
| C[C@H]1COC[C@H](C)N1C(=O)c1ccc(Cl)cc1NS(=O)(=O)c1cccc2nccnc12 | 5.01 | > 10 |  |  |
| O=C(c1ccccc1NS(=O)(=O)c1cccc2nsnc12)N1CCCCC1 |  |  | > 10 |  |

| SMILES | Ki ([1]; read-out: Log Ki (converted)) [µM] | Ki ([2]; read-out: Ki) [µM] | Ki ([1]; read-out: Ki) [µM] | Ki ([2]; read-out: Log Ki (converted)) [µM] |
| --- | --- | --- | --- | --- |
| O=C(Nc1ccccc1C(=O)NC(Cc1ccccc1)C(=O)O)c1cc2ccccc2[nH]1 (stereo unspecified) |  |  | > 10 | 0.0316 |
| O=C(c1ccc(Cl)cc1NS(=O)(=O)c1cccc2nsnc12)N1CCC(N2CCCCC2)CC1 |  | > 10 | > 10 |  |
| CC1CC(C)CN(C(=O)c2ccc(Cl)cc2NS(=O)(=O)c2cccc3nsnc23)C1 (stereo unspecified) | 1.26 | > 10 |  |  |
| O=C(c1ccc(Br)cc1NS(=O)(=O)c1ccc2nsnc2c1)N1CCCCC1 | > 10 | > 10 |  |  |
| O=C(c1cc(Br)ccc1NS(=O)(=O)c1cccc2nsnc12)N1CCCCC1 | 0.794 |  |  |  |
| O=C(Nc1cc(Br)ccc1C(=O)N1CCCCC1)c1cccc2nsnc12 |  | > 10 | > 10 |  |
| Nc1ccc(C(=O)N2CCCCC2)c(NS(=O)(=O)c2cccc3nsnc23)c1 | 7.94 | > 10 |  |  |
| O=C(c1ccc(Br)cc1NS(=O)(=O)c1cccc2nccnc12)N1CCOCC1 |  | > 10 |  |  |
| O=C(c1ccc(Cl)cc1NS(=O)(=O)c1cccc2nsnc12)N1CCCC1 | 0.251 | > 10 |  |  |
| CN(C)c1ccc(C(=O)N2CCCCC2)c(NS(=O)(=O)c2cccc3nsnc23)c1 | 0.316 | > 10 |  |  |
| O=C(c1cc(Br)c(Br)cc1NS(=O)(=O)c1cccc2nsnc12)N1CCCCC1 | 0.01 | > 10 |  |  |
| CC(=O)Nc1ccc(C(=O)N2CCCCC2)c(NS(=O)(=O)c2cccc3nsnc23)c1 |  | > 10 | > 10 |  |
| O=C(c1cccc(Cl)c1NS(=O)(=O)c1cccc2nsnc12)N1CCCCC1 |  | > 10 | > 10 |  |
| O=C(c1ccc([N+](=O)[O-])cc1NS(=O)(=O)c1cccc2nsnc12)N1CCCCC1 |  | > 10 |  |  |
| C[C@@H]1COC[C@H](C)N1C(=O)c1ccc(Cl)cc1NS(=O)(=O)c1cccc2nccnc12 | 0.631 | > 10 |  |  |
| O=C(c1ccc(I)cc1NS(=O)(=O)c1cccc2nsnc12)N1CCOCC1 |  | > 10 |  |  |
| O=C(c1ccc(F)cc1NS(=O)(=O)c1cccc2nsnc12)N1CCOCC1 | 3.98 | > 10 |  |  |
| O=C(c1ccc(OC2CCCC2)cc1NS(=O)(=O)c1cccc2nsnc12)N1CCCCC1 | 0.158 | > 10 |  |  |
| O=C(N[C@@H](Cc1ccccc1)C(=O)O)c1ccccc1NS(=O)(=O)c1cc2ccccc2[nH]1 | 5.01 |  |  |  |

More lines, now with the values ahead:

| Ki ([1]; read-out: Log Ki (converted)) [µM] | Ki ([2]; read-out: Ki) [µM] | Ki ([1]; read-out: Ki) [µM] | Ki ([2]; read-out: Log Ki (converted)) [µM] | SMILES |
| --- | --- | --- | --- | --- |
| 1 | > 10 |  |  | O=C(c1c(Cl)cccc1NS(=O)(=O)c1cccc2nsnc12)N1CCCCC1 |
| 0.316 | > 10 |  |  | O=C(c1ccc(Cl)cc1NS(=O)(=O)c1cccc2nsnc12)N1CCOCC1 |
|  | > 10 |  |  | O=C(c1ccc(Cl)cc1NS(=O)(=O)c1cccc2nccnc12)N1CCOCC1 |
| 0.158 | > 10 |  |  | O=C(c1ccc(Br)cc1NS(=O)(=O)c1ccc(Br)c2nsnc12)N1CCCCC1 |
| 0.126 | > 10 |  |  | O=C(c1cc2ccccc2cc1NS(=O)(=O)c1cccc2nsnc12)N1CCCCC1 |
|  | > 10 | > 10 |  | CN(c1cc(Br)ccc1C(=O)N1CCCCC1)S(=O)(=O)c1cccc2nsnc12 |
| 1.26 | > 10 |  |  | O=C(c1ccc(NCc2ccccc2)cc1NS(=O)(=O)c1cccc2nsnc12)N1CCCCC1 |
| 0.501 | > 10 |  |  | COc1cc(C(=O)N2CCCCC2)c(NS(=O)(=O)c2cccc3nsnc23)cc1Cl |
|  | > 10 | > 10 |  | CC1CN(C(=O)c2ccc(Cl)cc2NS(=O)(=O)c2cccc3nsnc23)CCN1 (stereo unspecified) |
| 0.0631 | > 10 |  |  | O=C(c1ccc(C(F)(F)F)cc1NS(=O)(=O)c1cccc2nsnc12)N1CCCCC1 |
|  | > 10 | > 10 |  | O=C(c1ccc(Cl)c(NS(=O)(=O)c2cccc3nsnc23)c1)N1CCCCC1 |
| 0.631 | > 10 |  |  | COc1ccc(C(=O)N2CCCCC2)c(NS(=O)(=O)c2cccc3nsnc23)c1 |
| 0.316 | > 10 |  |  | CC(C)c1ccc(C(=O)N2CCCCC2)c(NS(=O)(=O)c2cccc3nsnc23)c1 |
| 0.158 | > 10 |  |  | O=C(c1ccc(-c2ccccc2)cc1NS(=O)(=O)c1cccc2nsnc12)N1CCCCC1 |
| 0.1 | > 10 |  |  | Cc1ccc2nsnc2c1S(=O)(=O)Nc1cc(Br)ccc1C(=O)N1CCCCC1 |
| 0.1 | > 10 |  |  | Cc1ccc(S(=O)(=O)Nc2cc(Br)ccc2C(=O)N2CCCCC2)c2nsnc12 |
|  | > 10 | > 10 |  | O=C(c1ccc(Cl)cc1NS(=O)(=O)c1cccc2nsnc12)N1CCC[C@H]1CN1CCCC1 |
| 0.0398 | > 10 |  |  | O=C(c1ccc(Br)cc1NS(=O)(=O)c1c(F)ccc2nsnc12)N1CCCCC1 |
|  | > 10 | > 10 |  | Cc1cccc(C(=O)N2CCCCC2)c1NS(=O)(=O)c1cccc2nsnc12 |
| 0.126 | > 10 |  |  | O=C(c1ccc(-c2ccco2)cc1NS(=O)(=O)c1cccc2nsnc12)N1CCCCC1 |
| 2.51 | > 10 |  |  | O=C(NCc1ccccc1)c1ccc(Cl)cc1NS(=O)(=O)c1cccc2nsnc12 |
| 2.51 | > 10 |  |  | COc1cc(NS(=O)(=O)c2cccc3nsnc23)c(C(=O)N2CCCCC2)cc1OC |
|  | > 10 | > 10 |  | O=C(O)c1ccc(C(=O)N2CCCCC2)c(NS(=O)(=O)c2cccc3nsnc23)c1 |
